Measurements taken from ChEMBL document CHEMBL1201862, “PubChem BioAssay data set” (2004).
Calls of active or inactive are those of the source.

What was measured:
[1] = test system: Streptococcus sp. 'group A'; test: growth inhibition of control SK(-) GAS strain, dose response, counter-screen for streptokinase expression inhibitor project, luminescence, kanamycin, BacTiterGlo, confirmation (AID 1900); type: functional, organism-based
[2] = inhibitors of intracellular T. cruzi replication, confirmation, NIH3T3 host cells, beta-gal luminescence (AID 2044); type: functional, cell-based;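 note: intracellular parasites grown in NIH/3T3 mouse fibroblasts as host cells; luminescent beta-galactosidase reporter signal from transgenic T. cruzi replicating inside host cells; inhibitors lower the luminescence signal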
[3] = cytotoxicity toward NIH3T3 fibroblasts, dose response, counter-screen, cell-based, ATP luminescence, mouse fibroblasts (AID 2010); type: functional;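 note: cells exposed to compound for about 90 hours before reading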
Streptococcus = test: Group A Streptococcus viability loss, dose response, counter-screen for streptokinase expression inhibitor project, luminescence, BacTiterGlo (AID 1915); type: functional, organism-based;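 note: potency for reduction of bacterial viability or growth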
[4] = biological target: T1, Ubiquitin-conjugating enzyme E2 N (Homo sapiens, UniProt P61088); type: functional;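 note: Dose-response confirmation in a TR-FRET assay detecting UBC13-driven polyubiquitin chain formation, inhibition measured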
T1 sequence (P61088 whole entry): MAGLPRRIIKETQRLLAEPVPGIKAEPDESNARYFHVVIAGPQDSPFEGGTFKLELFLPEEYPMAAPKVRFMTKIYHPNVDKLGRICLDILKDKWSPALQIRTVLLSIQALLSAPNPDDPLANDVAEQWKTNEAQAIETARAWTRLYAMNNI

[5] = biological target: T2, Replicative DNA helicase DnaB (Mycobacterium tuberculosis, UniProt P9WMR3); test: DnaB intein splicing inhibitors, dose response, biochemical, cell-free fluorescence (AID 449749); type: functional
T2 sequence (P9WMR3 whole entry): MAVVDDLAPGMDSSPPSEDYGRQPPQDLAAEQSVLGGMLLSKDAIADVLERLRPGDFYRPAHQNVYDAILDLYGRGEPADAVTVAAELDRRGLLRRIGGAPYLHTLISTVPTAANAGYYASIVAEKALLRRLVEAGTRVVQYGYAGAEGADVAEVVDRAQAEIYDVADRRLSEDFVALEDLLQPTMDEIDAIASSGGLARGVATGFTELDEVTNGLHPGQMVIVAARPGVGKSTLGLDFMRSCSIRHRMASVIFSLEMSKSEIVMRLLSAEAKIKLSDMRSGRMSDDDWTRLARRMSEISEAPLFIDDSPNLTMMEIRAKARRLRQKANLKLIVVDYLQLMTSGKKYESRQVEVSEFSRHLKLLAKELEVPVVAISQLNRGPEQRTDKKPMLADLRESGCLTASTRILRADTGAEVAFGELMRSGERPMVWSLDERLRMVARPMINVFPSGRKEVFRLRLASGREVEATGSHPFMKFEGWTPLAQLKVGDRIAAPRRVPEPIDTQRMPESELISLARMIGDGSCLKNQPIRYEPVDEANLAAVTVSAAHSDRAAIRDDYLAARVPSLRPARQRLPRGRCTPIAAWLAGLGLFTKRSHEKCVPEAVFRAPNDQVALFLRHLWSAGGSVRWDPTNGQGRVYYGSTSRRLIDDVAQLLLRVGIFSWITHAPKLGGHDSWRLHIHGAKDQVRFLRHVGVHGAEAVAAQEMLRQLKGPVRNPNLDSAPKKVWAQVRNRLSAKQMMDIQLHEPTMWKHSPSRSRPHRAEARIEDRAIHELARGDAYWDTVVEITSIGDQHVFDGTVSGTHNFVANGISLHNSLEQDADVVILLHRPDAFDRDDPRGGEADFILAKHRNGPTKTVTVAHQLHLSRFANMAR

[6] = biological target: Heat shock protein HSP 90-alpha (Homo sapiens, UniProt P07900); type: functional, organism-based
[7] = biological target: T3, Apoptotic protease-activating factor 1 (Homo sapiens, UniProt O14727); type: functional
T3 sequence (O14727 whole entry): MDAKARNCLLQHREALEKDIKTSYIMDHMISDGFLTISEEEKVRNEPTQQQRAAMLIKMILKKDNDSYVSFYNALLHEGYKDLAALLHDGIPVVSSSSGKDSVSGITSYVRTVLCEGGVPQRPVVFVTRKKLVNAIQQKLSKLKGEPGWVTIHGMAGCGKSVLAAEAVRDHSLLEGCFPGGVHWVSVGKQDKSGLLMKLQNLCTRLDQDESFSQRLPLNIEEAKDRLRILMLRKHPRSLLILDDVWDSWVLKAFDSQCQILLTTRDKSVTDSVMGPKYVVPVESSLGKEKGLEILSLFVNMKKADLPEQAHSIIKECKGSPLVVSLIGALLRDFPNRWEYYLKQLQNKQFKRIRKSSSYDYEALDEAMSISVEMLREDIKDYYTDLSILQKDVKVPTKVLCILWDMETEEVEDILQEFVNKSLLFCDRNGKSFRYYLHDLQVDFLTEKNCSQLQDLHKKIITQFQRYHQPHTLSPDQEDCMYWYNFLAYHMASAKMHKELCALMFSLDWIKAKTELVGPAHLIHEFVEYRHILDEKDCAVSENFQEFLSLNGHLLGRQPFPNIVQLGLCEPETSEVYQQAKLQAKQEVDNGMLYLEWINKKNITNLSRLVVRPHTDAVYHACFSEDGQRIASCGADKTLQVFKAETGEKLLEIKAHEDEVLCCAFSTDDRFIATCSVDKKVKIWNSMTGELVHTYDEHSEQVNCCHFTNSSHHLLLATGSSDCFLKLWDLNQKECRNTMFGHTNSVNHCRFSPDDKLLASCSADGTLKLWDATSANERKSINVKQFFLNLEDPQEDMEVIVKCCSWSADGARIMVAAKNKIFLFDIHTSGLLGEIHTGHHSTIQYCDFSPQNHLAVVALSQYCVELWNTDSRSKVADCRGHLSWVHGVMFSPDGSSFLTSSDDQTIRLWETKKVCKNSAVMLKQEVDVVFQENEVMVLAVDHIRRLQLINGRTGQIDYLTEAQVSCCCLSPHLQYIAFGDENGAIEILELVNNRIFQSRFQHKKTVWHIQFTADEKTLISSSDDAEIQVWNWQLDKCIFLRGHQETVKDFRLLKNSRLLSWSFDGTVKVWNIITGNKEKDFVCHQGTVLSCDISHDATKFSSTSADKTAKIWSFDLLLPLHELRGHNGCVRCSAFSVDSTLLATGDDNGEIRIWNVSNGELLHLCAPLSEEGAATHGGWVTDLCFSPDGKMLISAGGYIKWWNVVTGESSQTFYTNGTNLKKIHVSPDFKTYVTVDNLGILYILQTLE

Protein RecA = biological target: T4, Protein RecA (Mycobacterium tuberculosis, UniProt P9WHJ3); test: Fluorescence Cell-Free Homogeneous Dose Retest to Identify Inhibitors of RecA-Intein Splicing Activity. [Related pubchem assays (depositor defined):AID2097, AID2223, AID489010, AID492950]; type: functional
T4 sequence (P9WHJ3 whole entry): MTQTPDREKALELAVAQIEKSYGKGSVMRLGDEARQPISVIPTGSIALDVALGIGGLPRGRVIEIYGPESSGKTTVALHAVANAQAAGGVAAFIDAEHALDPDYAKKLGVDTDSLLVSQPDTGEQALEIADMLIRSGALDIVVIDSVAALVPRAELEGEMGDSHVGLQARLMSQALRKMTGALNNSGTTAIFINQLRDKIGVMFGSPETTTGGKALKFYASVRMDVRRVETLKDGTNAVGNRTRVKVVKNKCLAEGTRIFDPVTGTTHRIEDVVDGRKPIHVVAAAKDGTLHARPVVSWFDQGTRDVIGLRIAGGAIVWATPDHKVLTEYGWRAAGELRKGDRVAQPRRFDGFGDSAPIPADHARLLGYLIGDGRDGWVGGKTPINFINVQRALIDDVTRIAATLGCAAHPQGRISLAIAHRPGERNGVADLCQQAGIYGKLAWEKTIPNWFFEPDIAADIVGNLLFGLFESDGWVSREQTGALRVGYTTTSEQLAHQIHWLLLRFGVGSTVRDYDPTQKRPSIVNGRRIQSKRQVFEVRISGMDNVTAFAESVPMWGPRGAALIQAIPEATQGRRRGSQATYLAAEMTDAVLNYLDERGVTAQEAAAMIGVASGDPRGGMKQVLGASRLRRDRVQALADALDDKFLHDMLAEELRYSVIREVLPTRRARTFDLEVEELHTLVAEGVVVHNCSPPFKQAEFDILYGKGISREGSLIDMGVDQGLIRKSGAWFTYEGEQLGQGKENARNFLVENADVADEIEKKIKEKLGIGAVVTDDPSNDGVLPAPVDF

INS1 = test: beta cell apoptosis inhibitors, cytokine rescue, dose response, luminescence, retest (AID 449756); type: functional, cell-based; conditions: Rattus norvegicus;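 note: cell death triggered by IL-1 beta plus TNF-alpha plus IFN-gamma mixture; protective hits raise ATP signal compared with cytokine alone wells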
Melanocortin receptor 4 = Melanocortin receptor 4 (Homo sapiens, UniProt P32245); type: functional, cell-based;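 note: Cell-based assay with luminescence read-out, confirmatory dose-response testing for agonist activity of biased ligands at MC4R; human U2OS cells with tagged receptor and beta-arrestin; potency of agonists that increase receptor coupling to beta-arrestin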
Chain of Melanocortin receptor 4 (P32245 whole entry): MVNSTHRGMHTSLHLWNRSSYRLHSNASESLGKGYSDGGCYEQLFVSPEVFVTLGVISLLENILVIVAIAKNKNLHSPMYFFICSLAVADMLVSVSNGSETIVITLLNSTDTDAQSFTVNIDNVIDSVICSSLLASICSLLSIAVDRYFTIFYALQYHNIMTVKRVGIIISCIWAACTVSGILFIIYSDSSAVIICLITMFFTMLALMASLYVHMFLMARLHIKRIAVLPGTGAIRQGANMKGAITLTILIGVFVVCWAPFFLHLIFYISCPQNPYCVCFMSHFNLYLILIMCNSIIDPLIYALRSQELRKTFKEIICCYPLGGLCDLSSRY

[8] = biological target: DNA repair protein RAD52 homolog (Homo sapiens, UniProt P43351); type: functional, biochemical
Chain of DNA repair protein RAD52 homolog (P43351 whole entry): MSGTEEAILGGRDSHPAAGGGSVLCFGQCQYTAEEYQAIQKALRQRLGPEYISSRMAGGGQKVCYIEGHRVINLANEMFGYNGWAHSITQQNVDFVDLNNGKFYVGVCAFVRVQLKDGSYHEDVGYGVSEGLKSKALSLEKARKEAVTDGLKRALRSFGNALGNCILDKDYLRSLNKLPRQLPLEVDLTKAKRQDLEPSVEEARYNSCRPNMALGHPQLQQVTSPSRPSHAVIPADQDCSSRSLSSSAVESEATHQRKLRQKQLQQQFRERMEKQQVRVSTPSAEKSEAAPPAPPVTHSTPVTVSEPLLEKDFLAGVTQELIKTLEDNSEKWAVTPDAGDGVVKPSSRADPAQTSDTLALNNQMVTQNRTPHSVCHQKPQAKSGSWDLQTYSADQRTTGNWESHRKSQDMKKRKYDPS

[9] = biological target: Delta-type opioid receptor (Homo sapiens, UniProt P41143); test: Counterscreen for agonists of heterodimerization of the mu 1 (OPRM1) and delta 1 (OPRD1) opioid receptors: Luminescence-based cell-based high throughput dose response assay to identify agonists of OPRD1 homodimerization. [Related pubchem assays (depositor defined):AID504326, AID504355, AID504692, AID504904, AID504905]; type: functional
Chain of Delta-type opioid receptor (P41143 whole entry): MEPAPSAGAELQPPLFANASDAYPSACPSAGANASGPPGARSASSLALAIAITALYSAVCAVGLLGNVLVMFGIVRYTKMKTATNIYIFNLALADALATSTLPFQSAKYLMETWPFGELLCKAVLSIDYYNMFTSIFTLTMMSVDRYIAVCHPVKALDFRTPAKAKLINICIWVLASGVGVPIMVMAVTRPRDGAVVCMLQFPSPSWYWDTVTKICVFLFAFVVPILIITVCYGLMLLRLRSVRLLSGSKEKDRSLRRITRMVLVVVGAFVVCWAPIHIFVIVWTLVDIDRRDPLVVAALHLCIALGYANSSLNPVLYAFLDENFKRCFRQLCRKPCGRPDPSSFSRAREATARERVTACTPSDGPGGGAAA

Mu-type opioid receptor = Mu-type opioid receptor (Homo sapiens, UniProt P35372); test: Counterscreen for agonists of heterodimerization of the mu 1 (OPRM1) and delta 1 (OPRD1) opioid receptors: Luminescence-based cell-based high throughput dose response assay to identify agonists of OPRM1 homodimerization.; type: functional;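 note: U2OS cells expressing OPRM1 and beta-arrestin as split beta-galactosidase partners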
Chain of Mu-type opioid receptor (P35372 whole entry): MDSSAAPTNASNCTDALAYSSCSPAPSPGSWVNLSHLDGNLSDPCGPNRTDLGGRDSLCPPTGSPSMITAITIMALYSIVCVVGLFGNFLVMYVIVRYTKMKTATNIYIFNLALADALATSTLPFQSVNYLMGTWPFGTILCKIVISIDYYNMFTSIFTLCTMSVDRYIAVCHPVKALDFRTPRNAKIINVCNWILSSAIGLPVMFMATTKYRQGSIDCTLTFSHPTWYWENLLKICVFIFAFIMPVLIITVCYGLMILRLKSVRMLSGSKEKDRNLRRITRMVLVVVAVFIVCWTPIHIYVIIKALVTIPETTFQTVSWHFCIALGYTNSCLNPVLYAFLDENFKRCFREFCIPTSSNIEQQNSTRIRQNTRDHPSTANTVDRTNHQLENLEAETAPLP

[10] = biological target: 5-hydroxytryptamine receptor 5A (Homo sapiens, UniProt P47898); test: Counterscreen for agonists of OPRM1-OPRD1 heterodimerization: luminescence-based cell-based high throughput dose response assay to identify agonists of 5-hydroxytryptamine (serotonin) 5A receptor (HTR5A). [Related pubchem assays (depositor defined):AID504326, AID504355, AID504692, AID504904, AID504905]; type: functional
Chain of 5-hydroxytryptamine receptor 5A (P47898 whole entry): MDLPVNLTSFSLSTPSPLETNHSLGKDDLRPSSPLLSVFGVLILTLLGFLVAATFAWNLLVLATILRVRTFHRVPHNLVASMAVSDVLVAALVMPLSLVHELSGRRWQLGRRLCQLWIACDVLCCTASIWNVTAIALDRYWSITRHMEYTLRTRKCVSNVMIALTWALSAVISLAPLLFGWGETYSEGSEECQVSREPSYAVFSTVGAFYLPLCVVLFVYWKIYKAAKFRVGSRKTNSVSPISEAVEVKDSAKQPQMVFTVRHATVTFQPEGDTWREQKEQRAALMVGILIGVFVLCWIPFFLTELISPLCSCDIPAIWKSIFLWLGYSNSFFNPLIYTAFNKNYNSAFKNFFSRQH

Paired box protein Pax-8 = Paired box protein Pax-8 (Homo sapiens, UniProt Q06710); test: inhibitors of PAX8-driven TPO luciferase reporter, dose response, RMG-I cells, cherry-pick (AID 687027); type: functional, cell-based;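 note: luciferase reporter driven by Pax8 target thyroperoxidase promoter measured by SteadyGlo luminescence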
Chain of Paired box protein Pax-8 (Q06710 whole entry): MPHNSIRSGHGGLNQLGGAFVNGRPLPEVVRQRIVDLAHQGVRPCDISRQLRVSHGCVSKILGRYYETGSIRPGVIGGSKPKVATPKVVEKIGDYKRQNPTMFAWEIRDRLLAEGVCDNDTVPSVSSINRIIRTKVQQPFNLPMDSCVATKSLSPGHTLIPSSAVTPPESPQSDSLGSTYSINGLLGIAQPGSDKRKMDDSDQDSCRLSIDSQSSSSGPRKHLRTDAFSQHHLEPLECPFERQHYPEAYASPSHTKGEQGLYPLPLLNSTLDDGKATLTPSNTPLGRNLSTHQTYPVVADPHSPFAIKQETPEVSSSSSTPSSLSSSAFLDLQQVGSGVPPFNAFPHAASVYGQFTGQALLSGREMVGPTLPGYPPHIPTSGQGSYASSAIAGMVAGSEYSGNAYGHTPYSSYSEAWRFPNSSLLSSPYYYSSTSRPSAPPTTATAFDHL

[11] = non-specific cell cytotoxicity, dose response, cytotoxicity control for PAX8 inhibitor project, plate reader, dry powder samples (AID 743021); type: functional, cell-based
fMet-Leu-Phe receptor = fMet-Leu-Phe receptor (Homo sapiens, UniProt P21462); test: FPR ligands, dose response (AID 519); type: functional
Chain of fMet-Leu-Phe receptor (P21462 whole entry): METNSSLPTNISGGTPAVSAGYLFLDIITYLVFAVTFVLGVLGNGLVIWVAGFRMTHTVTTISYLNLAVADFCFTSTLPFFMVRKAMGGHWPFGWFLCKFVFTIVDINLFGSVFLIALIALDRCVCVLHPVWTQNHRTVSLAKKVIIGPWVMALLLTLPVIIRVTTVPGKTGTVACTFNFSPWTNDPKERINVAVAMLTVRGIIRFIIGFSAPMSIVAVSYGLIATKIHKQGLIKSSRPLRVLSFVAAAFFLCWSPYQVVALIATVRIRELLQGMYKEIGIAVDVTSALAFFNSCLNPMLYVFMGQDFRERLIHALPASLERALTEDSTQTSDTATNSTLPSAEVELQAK

[12] = A549 cell cytotoxicity, dose response, cytotoxicity control, plate reader, cherry-pick, antagonist series (AID 743412); type: functional, cell-based
[13] = HepG2 cell cytotoxicity, dose response, cytotoxicity control, plate reader, cherry-pick, antagonist series (AID 743416); type: functional, cell-based
[14] = LGR2 antagonists, dose response, cell-based, HEK293, CRE-luciferase reporter, cherry pick, set 2 (AID 743343); type: functional;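 note: transfected cells were stimulated with diluted bursicon conditioned medium after compound addition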
[15] = MC4R antagonists, dose response, counter-screen for LGR2 antagonist project, cell-based, plate reader, cherry pick (AID 743444); type: functional;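 note: transfected HEK 293 cells stimulated with alpha-MSH peptide; potency of inhibitors of the alpha-MSH evoked signal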
[16] = HEK293 cell cytotoxicity, dose response, cytotoxicity control, plate reader, cherry-picked samples (AID 743446); type: functional, cell-based
[17] = Shn3 3'UTR reporter inhibitors, dose response, cell-based, Clone20 osteoblasts, firefly luciferase, cherry-picked (AID 624132); type: functional;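 note: firefly luciferase luminescence from reporter carrying the Shn3 3'UTR in osteoblasts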
[18] = HepG2 cell cytotoxicity, dose response, cytotoxicity control for Shn3 inhibitor project, CellTiter-Glo, cherry-picked (AID 624134); type: functional, cell-based
[19] = control 3'UTR Renilla luciferase suppression, dose response, counter-screen for Shn3 inhibitor project, cell-based, Clone20-Shn3RL, cherry-picked (AID 624133); type: functional
[20] = reduction of Shn3 3'UTR firefly luciferase signal, dose response, Schnurri-3 inhibitor project, cell-based, Clone20 osteoblasts, cherry-pick, set 2 (AID 720490); type: functional;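 note: actives lower the luminescence signal as inhibitors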
H9c2 = test: cells; type: functional, cell-based; conditions: Rattus norvegicus, H9c2, Myocardium;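 note: confirmatory concentration-response retest of ultra-high-throughput screening hits for modulation of myocardial damage; cell death induced by hydrogen peroxide oxidative stress; compound pretreatment for 60 min then peroxide exposure for 2 h; potency is for protecting the cells against peroxide damage rather than for killing them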
HeLa = test: HeLa cell cytotoxicity, dose response, cytotoxicity control, ATP luminescence, cherry-pick samples (AID 687004); type: functional, cell-based; conditions: Homo sapiens
[21] = inhibitors of CMV-promoter luciferase reporter, dose response, counter-screen for Pax8 inhibitor project, cell-based, HEK293, luminescence, dry powder (AID 743020); type: functional

Compound: CCCCCCCCCCOC(=O)C[n+]1c(COc2cccc(C)c2)n(C)c2ccccc21
- EC50 [1]: 4.16 µM (active)
- EC50 [2]: 1 µM (active)
- EC50 [3]: > 60 µM (not active)
- EC50 (Streptococcus): 7.73 µM (active)
- IC50 [4]: > 20 µM (inactive)
- AC50 [5]: 3.19 µM (active)
- AC50 [6]: 32.5 µM (active)
- IC50 [7]: 15.9 µM (active)
- EC50 (Protein RecA): 9.88 µM (active)
- AC50 (INS1): 3.87 µM (active)
- EC50 (Melanocortin receptor 4): > 89.2 µM (inactive)
- AC50 [8]: 11.9 µM (active)

Compound: CCN1CCN(Cc2ccc(NC(=O)c3ccc(C)c(NC(=O)c4cnc5cc(C(F)(F)F)ccc5c4O)c3)cc2C(F)(F)F)CC1
- IC50 [4]: > 20 µM (inactive)
- EC50 [9]: 11.2 µM (inactive)
- EC50 (Mu-type opioid receptor): > 92.5 µM (inactive)
- EC50 [10]: > 92.5 µM (inactive)
- AC50 (INS1): 4.42 µM (active)
- AC50 (Paired box protein Pax-8): 10.6 µM (active)
- AC50 [11]: 26.2 µM (active)

Compound: CC1(C)S[C@@H]2[C@H](NC(=O)Cc3ccccc3)C(=O)N2[C@H]1C(=O)O [PENICILLIN G POTASSIUM]
- Ki (fMet-Leu-Phe receptor): 7.8 µM (active)

Compound: Oc1nc2ccccc2n1C1CCN(C(c2cc3ccccc3o2)c2nnnn2-c2ccc3c(c2)OCCO3)CC1 (stereo not drawn)
- AC50 (Paired box protein Pax-8): 5.8 µM (active)
- AC50 [12]: 12.6 µM (active)
- AC50 [13]: 39.1 µM (active)
- AC50 [14]: 11.6 µM (active)
- AC50 [11]: 24.3 µM (active)
- AC50 [15]: 8.87 µM (active)
- AC50 [16]: 15.5 µM (active)

Compound: COc1cc(-n2nc(C)c3c2OC(N)=C(C#N)C3c2ccccc2)c(Cl)c(Br)c1O (stereo not drawn)
- AC50 [5]: 15.6 µM (active)
- EC50 (Protein RecA): 3.47 µM (active)
- Ki (fMet-Leu-Phe receptor): 32.5 µM (inactive)

Compound: Cc1ccc(NC(=O)c2cc(S(=O)(=O)NCCC3=CCCCC3)ccc2F)cc1F
- AC50 (INS1): 3.03 µM (active)
- AC50 [17]: 4.13 µM (active)
- AC50 [18]: 41.5 µM (active)
- AC50 [19]: 46.1 µM (active)
- AC50 [20]: 3.83 µM (active)

Compound: CS(=O)(=O)c1ccc(-c2cnc3c(NC=O)cc(-c4ccsc4)cn23)cc1
- IC50 (H9c2): 4.99 µM (active)
- AC50 (HeLa): > 52 µM (inactive)

Compound: CCCCC(=O)N1CCN(c2ccc(OC)cc2[N+](=O)[O-])CC1
- AC50 [21]: < 21.5 µM (active)
